One assay has as its target T1, D2 receptor (Chlorocebus aethiops, UniProt P52702).
T1 construct: expressed in transfected cells; host or cells: COS cells
In words: D2 receptor binding assay (3H-YM 09151-2 displacement). Details: species or system African Green monkey. The settings on record: 0.5 nM 3H-YM 09151-2; nonspecific binding with 1 mM spiperone. The protocol:
(§1) 1. Assay For D2 And D4 Receptor Binding Activity
(§2) Pellets of COS cells containing recombinantly produced D2 or D4 receptors from African Green monkey are used for the assays. The sample is homogenized in 100 volumes (w/vol) of 0.05 M Tris HCl buffer at 4° C. and pH 7.4. The sample is then centrifuged at 30,000×g and resuspended and rehomogenized. The sample is again centrifuged as described above and the final tissue sample is frozen until use. The tissue is resuspended 1:20 (wt/vol) in 0.05 M Tris HCl buffer containing 100 mM NaCl.
(§3) Incubations are carried out at […] and contain 0.4 ml of tissue sample, 0.5 nM ^3 H-YM 09151-2 and the compound of interest in a total incubation of 1.0 ml. Nonspecific binding is defined as that binding found in the presence of 1 mM spiperone; without further additions, nonspecific binding is less than 20% of total binding. Binding characteristics for representative examples of this invention for the D2 and D4 receptor subtypes are shown in Table 2 below for rat striatal homogenates. The binding characteristics of compounds of Formula I for the D4 receptor, expressed in nM, generally range from about 0.5 nanomolar (nM) to about 25 nanomolar (nM). These compounds typically have binding constants for the D2 receptor of from about 200 nM to more than 1000 nM.

A further assay has as its target D4 receptor. Briefly: D4 receptor binding assay (3H-YM 09151-2 displacement). The settings on record: 0.5 nM 3H-YM 09151-2; nonspecific binding with 1 mM spiperone. Details: species or system African Green monkey. The protocol:
as §1, §2, §3

The structures appear in SMILES notation.

T1 sequence (P52702 whole entry): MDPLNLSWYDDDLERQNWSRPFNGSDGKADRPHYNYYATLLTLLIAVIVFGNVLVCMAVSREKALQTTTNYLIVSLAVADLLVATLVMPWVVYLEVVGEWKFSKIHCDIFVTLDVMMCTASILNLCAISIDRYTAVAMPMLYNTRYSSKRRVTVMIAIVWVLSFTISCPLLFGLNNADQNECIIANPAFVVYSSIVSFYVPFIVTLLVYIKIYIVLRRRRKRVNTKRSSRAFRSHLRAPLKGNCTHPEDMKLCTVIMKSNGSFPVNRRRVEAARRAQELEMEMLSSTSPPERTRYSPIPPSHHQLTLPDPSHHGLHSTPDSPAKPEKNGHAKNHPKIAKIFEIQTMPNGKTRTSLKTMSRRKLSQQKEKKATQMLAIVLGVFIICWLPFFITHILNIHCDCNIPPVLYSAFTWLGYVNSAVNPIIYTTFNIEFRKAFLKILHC

On to `Clc1ccc(CN2CCN(c3nccc4ccccc34)CC2)cc1` [Compound 1], for which the results for the Ki at D2 receptor and on D4 receptor were 0.556 µM and 0.005 µM, respectively.

For the molecule `Fc1ccc(CN2CCN(c3nccc4ccccc34)CC2)cc1F` [Compound 2], the Ki on D2 receptor stood at 1 µM; at D4 receptor, 0.013 µM.

As to `c1ccc2c(N3CCN(Cc4ccc5c(c4)OCO5)CC3)nccc2c1` [Compound 4], at D4 receptor, the affinity corresponds to a Ki of 0.019 µM.

On to `Cc1ccc(CN2CCN(c3nccc4ccccc34)CC2)cc1` [Compound 6], for which the Ki is 0.22 µM at D2 receptor and 0.009 µM on D4 receptor.

(Values after patent publication US6008352A, “1-(isoquinolin-1-yl)-4-(1-phenylmethyl) piperazines; dopamine receptor subtype specific ligands” (Neurogen Corporation, priority 1998, dated 1999).)
